Results from paper PMC4192288 (Endocrinology, 2013).

Biological target: T1, 11β-hydroxysteroid dehydrogenase type 1 (11β-HSD1) (Mus musculus, UniProt P50172)
T1 construct: gene Hsd11b1; recombinant 11β-HSD1
Assay: HTRF cortisol competitive assay with recombinant […]β-HSD1; also […] ex vivo inhibition in mouse liver
Format: biochemical

T1 sequence (P50172 whole entry): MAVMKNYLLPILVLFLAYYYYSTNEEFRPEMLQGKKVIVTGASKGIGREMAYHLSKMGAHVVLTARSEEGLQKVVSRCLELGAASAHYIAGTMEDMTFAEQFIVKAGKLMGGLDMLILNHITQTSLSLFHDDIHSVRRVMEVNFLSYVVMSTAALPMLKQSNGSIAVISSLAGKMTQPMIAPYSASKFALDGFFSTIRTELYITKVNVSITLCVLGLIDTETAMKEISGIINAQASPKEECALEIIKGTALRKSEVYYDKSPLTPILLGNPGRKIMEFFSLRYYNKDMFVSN

F[C@H]1C[C@](c2ccc(Cl)cc2)(c2nnc(C3CC3)n2C2CC2)C1 [MK-0916, 3-[1-(4-chlorophenyl)-3-fluorocyclobutyl]-4,5-dicyclopropyl-1,2,4-triazole]
IC50: 30 nM
